# Data reported in US20230105212A1, “BIPHENYL DERIVATIVE INHIBITOR, PREPARATION METHOD THEREFOR AND USE THEREOF” (SHANGHAI HANSOH BIOMEDICAL CO., LTD., priority 2020, published 2023).
# Key:
# [1] = biological target: T1, PD-L1 protein on the surface of MC38-hPDL1 tumor cells (Homo sapiens, UniProt Q9NZQ7); experiment: Induction of endocytosis of PD-L1 on the surface of tumor cells (flow cytometry); assay type: cell-based; conditions: 16 hours incubation; for Emax: MC38-hPDL1 cells, read-out: MC38 maximum endocytosis rate; for IC50: inducing endocytosis of PD-L1, MC38-hPDL1 cells, read-out: MC38 IC50
# T1 construct: expressed in transfected cells; host or cells: MC38-hPDL1 (mouse colon cancer cells)
# T1 sequence (Q9NZQ7 19-290): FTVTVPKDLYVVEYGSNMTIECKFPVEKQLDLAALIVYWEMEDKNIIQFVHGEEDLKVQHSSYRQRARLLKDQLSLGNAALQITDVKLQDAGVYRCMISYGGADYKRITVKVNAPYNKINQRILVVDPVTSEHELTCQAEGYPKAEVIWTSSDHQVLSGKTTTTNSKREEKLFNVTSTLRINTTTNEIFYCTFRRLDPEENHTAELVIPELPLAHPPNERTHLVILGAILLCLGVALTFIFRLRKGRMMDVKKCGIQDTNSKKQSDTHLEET
# From the text: Test Embodiment 2. Test of the Activity of Compounds of the Present Disclosure on Inducing the Endocytosis of PD-L1 Protein on the Surface of Tumor Cells
# Experimental purpose: The purpose of this test embodiment was to test the activity of the compound on inducing the endocytosis of PD-L1 on the surface of tumor cells.
# Experimental method: In order to test the activity of the compound on inducing the endocytosis of PD-L1, in this experiment, the activity of the compound on inducing the endocytosis of PD-L1 was tested by detecting the change degree of PD-L1 on the tumor cell surface with fluorescently labeled anti-PD-L1 antibody, and the IC50 of activity of the compound on inducing the endocytosis of PD-L1 was obtained.
# The mouse colon cancer cells MC38-hPDL1 with high expression of hPD-L1 were collected, and adjusted to a suitable density and plated in a 24-well plate, and placed in a 37° C., 5% CO2 incubator to adhere overnight. Compounds were prepared into different concentrations by medium and added to a 24-well plate, and a vehicle control well was set up. After the cells were incubated in a 37° C., 5% CO2 incubator for 16 hours, the 24-well plate was taken out, and MC38-hPDL1 cells with different treatments in the plate were collected. After the cells were washed once with FACS buffer (PBS containing 0.5% BSA), and the cells were prepared to an appropriate density with FACS buffer. PE Mouse Anti-Human CD274 antibody (BD Pharmingen #557924) was added, and the cells were shaken at room temperature and incubated for 30 minutes without light, then the cells were washed twice with FACS buffer, resuspended in 100 μL of PBS, and a flow cytometer was used to detect the fluorescent signal on the cell surface, and the isotype control was set as a negative control.
# The endocytosis rate of the compounds was calculated from the fluorescence signals of different treatment groups, and the compound concentration and endocytosis rate were fitted by nonlinear regression using GraphPad Prism software, and IC50 values were obtained, as shown in Table 2.
# [2] = biological target: T2, human PD-1/PD-L1 binding (Homo sapiens, UniProt Q9NZQ7); experiment: Inhibition of human PD-1/PD-L1 binding (TR-FRET/HTRF); conditions: TR-FRET, PD-L1-His and PD-1-Fc; read-out: PD-1/PD-L1 binding IC50
# T2 construct: PD-L1-His protein (19 to 238 amino acids) (Abcam #ab167713); purchased Abcam (PD-L1-His); R&D (PD-1-Fc) ab167713; 1086-PD
# T2 sequence (Q9NZQ7 19-238): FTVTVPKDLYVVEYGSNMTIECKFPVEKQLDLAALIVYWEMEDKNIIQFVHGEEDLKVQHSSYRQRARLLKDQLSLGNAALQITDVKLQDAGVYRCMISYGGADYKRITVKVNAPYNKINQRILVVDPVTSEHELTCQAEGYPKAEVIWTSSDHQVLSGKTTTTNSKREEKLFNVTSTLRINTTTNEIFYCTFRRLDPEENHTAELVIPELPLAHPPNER
# From the text: Test Embodiment 1: Test of Inhibitory Effect of the Compounds of the Present Disclosure on Human PD-1/PD-L1 Binding
# Experimental purpose: The purpose of this test embodiment was to measure the inhibitory activity of the compounds on human PD-1/PD-L1 binding.
# Experimental reagents: Binding Domain diluent buffer was purchased from Cisbio Company, Cat. No.: 62DLBDDF; MAb Anti-6HIS Eu cryptate Gold was purchased from Cisbio Company with the article number of 61HI2KLA; PAb Anti Human IgG-XL665 was purchased from Cisbio Company with the article number of 61HFCXLB; PD-L1-His protein was purchased from Abcam Company with the article number of ab167713; PD-1-Fc protein was purchased from R&D Company with the article number of 1086-PD; Detection buffer was purchased from Cisbio Company with the article number of 62SDBRDD; 384-well plate was purchased from PerkinElmer Company with the article number of 6007290.
# Experimental method: In order to test the inhibitory activity of the compounds on human PD-1/PD-L1 binding, the method of time-resolved fluorescence resonance energy transfer (TR-FRET) was used in this experiment to test the inhibition of the compounds on human PD-1/PD-L1 binding, and the half inhibitory concentration IC50 of inhibitory activity of the compounds on human PD-1/PD-L1 binding was obtained.
# This experiment was performed in a 384-well plate with a total reaction volume of 20 μL. Compounds were diluted to different concentrations (10 μM or 1 μM starting, 3-fold dilution, 11 doses) using assay buffer Binding Domain diluent buffer (Cisbio #62DLBDDF), then PD-L1-His protein (19 to 238 amino acids) (Abcam #ab167713) was diluted to 10 nM with assay buffer, and PD-1-Fc protein (25 to 167 amino acids) (R&D #1086-PD) was diluted to 20 nM with assay buffer; the compound, PD-L1 protein and PD-1 protein were added to a 384-well plate respectively, and the total volume was 10 μL, then centrifuged at 1000 rpm for 1 minute to mix well, and incubated for 60 minutes at room temperature. Then 10 μL of a mixed solution of MAb Anti-6HIS Eu cryptate Gold (Cisbio #61HI2KLA) and PAb Anti Human IgG-XL665 (Cisbio #61HFCXLB) diluted by HTRF Detection buffer was added to each well, and centrifuged at 1000 rpm for 1 minute to mix well. The reaction was carried out at room temperature for 3 hours or at 4° C. overnight, then a microplate reader (BioTek Synergy H1) was put into for reading; the excitation wavelength was 340 nm, and the emission wavelengths were 620 nm and 665 nm.
# The ratio of fluorescence readings at 620 nm and 665 nm (665 nm/620 nm) was calculated, and the inhibition rate was calculated.
Emax [1] [%],IC50 [1] [nM],IC50 [2] [nM],SMILES
,,6.9,"COc1cc(-c2cccc(-c3cccc(NC(=O)c4nc5c(n4C)CCN(C)C5)c3Cl)c2C)ncc1CN1CC[C@@H](F)C1 [Embodiment 60, (R)—N-(2-Chloro-3′-(5-((3-fluoropyrrolidin-1-yl)methyl)-4-methoxypyridin-2-yl)-2′-methyl-[1,1′-biphenyl]-3-yl)-1,5-dimethyl-4,5,6,7-tetrahydro-1H-imidazo[4,5-c]pyridine-2-carboxamide]"
85,7,,"COc1cc(C(=O)Nc2cccc(-c3cccc(NC(=O)c4nc5c(n4C)CCN(C)C5)c3Cl)c2C)ncc1CNCC1(F)CCOCC1 [Embodiment 19, N-(2-Chloro-3′-(5-((((4-fluorotetrahydro-2H-pyran-4-yl)methyl)amino)methyl)-4-methoxypicolinamido)-2′-methyl-[1,1′-biphenyl]-3-yl)-1,5-dimethyl-4,5,6,7-tetrahydro-1H-imidazo[4,5-c]pyridine-2-carboxamide]"
,,8.4,"COc1cc(CN2CC(F)C2)cnc1C(=O)Nc1cccc(-c2cccc(NC(=O)c3nc4c(n3C)CCN(C)C4)c2Cl)c1C [Embodiment 108, N-(2-Chloro-3′-(5-((3-fluoroazetidin-1-yl)methyl)-3-methoxypicolinamido)-2′-methyl-[1,1′-biphenyl]-3-yl)-1,5-dimethyl-4,5,6,7-tetrahydro-1H-imidazo[4,5-c]pyridine-2-carboxamide]"
,,9.1,"COc1cc(C(=O)Nc2cccc(-c3cccc(NC(=O)c4nc5c(n4C)CCN(C)C5)c3Cl)c2C)ncc1CN1CC2(COC2)CC1=O [Embodiment 104, N-(2-Chloro-3′-(4-methoxy-5-((7-carbonyl-2-oxa-6-azaspiro[3.4]octan-6-yl)methyl)picolinamido)-2′-methyl-[1,1′-biphenyl]-3-yl)-1,5-dimethyl-4,5,6,7-tetrahydro-1H-imidazo[4,5-c]pyridine-2-carboxamide]"
95,0.9,,"COc1cc(C(=O)Nc2cccc(-c3cccc(NC(=O)c4nc5c(n4C)CCN(C)C5)c3Cl)c2C)ncc1CN1CC[C@@H](F)C1 [Embodiment 25, (R)—N-(2-Chloro-3′-(5-((3-fluoropyrrolidin-1-yl)methyl)-4-methoxypicolinamido)-2′-methyl-[1,1′-biphenyl]-3-yl)-1,5-dimethyl-4,5,6,7-tetrahydro-1H-imidazo[4,5-c]pyridine-2-carboxamide]"

# Further lines, the compound ahead of its results:
SMILES,Emax [1] [%],IC50 [1] [nM],IC50 [2] [nM]
"COc1nc(-c2cccc(-c3cccc(NC(=O)c4nc5c(n4C)CCN(C)C5)c3Cl)c2Cl)ccc1CN1CCN(C(=O)C(F)(F)F)CC1 [Embodiment 202, N-(2,2′-Dichloro-3′-(6-methoxy-5-((4-(2,2,2-trifluoroacetyl)piperazin-1-yl)methyl)pyridin-2-yl)-[1,1′-biphenyl]-3-yl)-1,5-dimethyl-4,5,6,7-tetrahydro-1H-imidazo[4,5-c]pyridine-2-carboxamide]",89,,
"COc1ccnc(NCc2cnc(C(=O)Nc3cccc(-c4cccc(NC(=O)c5nc6c(n5C)CCN(C)C6)c4Cl)c3C)cc2OC)c1 [Embodiment 12, N-(2-Chloro-3′-(4-methoxy-5-(((4-methoxypyridin-2-yl)amino)methyl)picolinamido)-2′-methyl-[1,1′-biphenyl]-3-yl)-1,5-dimethyl-4,5,6,7-tetrahydro-1H-imidazo[4,5-c]pyridine-2-carboxamide]",84,6.5,
"COc1cc(-c2cccc(-c3cccc(NC(=O)c4nc5c(n4C)CCN(C)C5)c3Cl)c2Cl)ncc1CNC1CCOCC1 [Embodiment 57, N-(2,2′-Dichloro-3′-(4-methoxy-5-(((tetrahydro-2H-pyran-4-yl)amino)methyl)pyridin-2-yl)-[1,1′-biphenyl]-3-yl)-1,5-dimethyl-4,5,6,7-tetrahydro-1H-imidazo[4,5-c]pyridine-2-carboxamide]",,,3
"COc1cc(NCc2cnc(C(=O)Nc3cccc(-c4cccc(NC(=O)c5nc6c(n5C)CCN(C(C)C)C6)c4Cl)c3C)cc2OC)ccn1 [Embodiment 70, N-(2-Chloro-3′-(4-methoxy-5-(((2-methoxypyridin-4-yl)amino)methyl)picolinamido)-2′-methyl-[1,1′-biphenyl]-3-yl)-5-isopropyl-1-methyl-4,5,6,7-tetrahydro-1H-imidazo[4,5-c]pyridine-2-carboxamide]",81,4,
"COc1nc(OCc2cccc(-c3cccc(NC(=O)c4nc5c(n4C)CCN(C)C5)c3Cl)c2C)nc(OC)c1CN1CCCC[C@H]1C(=O)O [Embodiment 170, (S)-1-((2-((2′-Chloro-3′-(1,5-dimethyl-4,5,6,7-tetrahydro-1H-imidazo[4,5-c]pyridine-2-carboxamido)-2-methyl-[1,1′-biphenyl]-3-yl)methoxy)-4,6-dimethoxypyrimidin-5-yl)methyl)piperidine-2-carboxylic Acid]",,,4.1
"CNC(=O)CNCc1ccc(-c2cccc(-c3cccc(NC(=O)c4nc5c(n4C)CCN(C)C5)c3Cl)c2Cl)nc1OC [Embodiment 140, N-(2,2′-Dichloro-3′-(6-methoxy-5-(((2-(methylamino)-2-carbonylethyl)amino)methyl)pyridin-2-yl)-[1,1′-biphenyl]-3-yl)-1,5-dimethyl-4,5,6,7-tetrahydro-1H-imidazo[4,5-c]pyridine-2-carboxamide]",,,9.1
"COc1cc(C(=O)Nc2cccc(-c3cccc(NC(=O)c4nc5c(n4C)CCN(C)C5)c3Cl)c2C)ncc1CNCc1ncccc1OC [Embodiment 13, N-(2-Chloro-3′-(4-methoxy-5-((((3-methoxypyridin-2-yl)methyl)amino)methyl)picolinamido)-2′-methyl-[1,1′-biphenyl]-3-yl)-1,5-dimethyl-4,5,6,7-tetrahydro-1H-imidazo[4,5-c]pyridine-2-carboxamide]",87,6.6,
"COc1nc(-c2cccc(-c3cccc(NC(=O)c4nc5c(n4C)CCN(C)C5)c3Cl)c2Cl)ccc1CN1CCN(S(C)(=O)=O)CC1 [Embodiment 204, N-(2,2′-Dichloro-3′-(6-methoxy-5-((4-(methylsulfonyl)piperazin-1-yl)methyl)pyridin-2-yl)-[1,1′-biphenyl]-3-yl)-1,5-dimethyl-4,5,6,7-tetrahydro-1H-imidazo[4,5-c]pyridine-2-carboxamide]",89,,
"COc1cc(NCc2cnc(C(=O)Nc3cccc(-c4cccc(NC(=O)c5nc6c(n5C)CCN(C)C6)c4Cl)c3C)cc2C2CC2)ccn1 [Embodiment 44, N-(2-Chloro-3′-(4-cyclopropyl-5-(((2-methoxypyridin-4-yl)amino)methyl)picolinamido)-2′-methyl-[1,1′-biphenyl]-3-yl)-1,5-dimethyl-4,5,6,7-tetrahydro-1H-imidazo[4,5-c]pyridine-2-carboxamide]",88,4.2,
